Assay results as given in patent US20230082430A1 (C4 Therapeutics, Inc., priority 2019, published 2023).

Tested on: NCIH929.1 cells
Test: Cell viability assay for Table 2 (CellTiter-Glo 2.0, ATP quantification, 96 hr)
Format: cell-based
Conditions: 96 h, NCIH929.1 cell viability, 96 hr, top concentration 1 μM, 14 points half log titration; read-out: IC50
Source text: Cell Viability Assay for Table 2
CellTiter-Glo® 2.0 Assay was purchased from Promega (Madison, Wis., USA). NCIH929.1 cell line was purchased from ATCC (Manassas, Va., USA). Cell culture flasks and 384-well microplates were acquired from VWR (Radnor, Pa., USA).

| SMILES | IC50 [nM] |
| --- | --- |
| O=C1CCC(N2C(=O)c3cccc4c(Cc5cnn(C6CCN(CC7(C(F)(F)F)CC7)CC6)c5)ccc2c34)C(=O)N1 (centres unmarked) [Compound 62, 3-(2-oxo-6-((1-(1-((1-(trifluoromethyl)cyclopropyl)methyl)piperidin-4-yl)-1H-pyrazol-4-yl)methyl)benzo[cd]indol-1(2H)-yl)piperidine-2,6-dione] | < 1 |
| CC(C)(Cl)C(=O)N1CCC(C)(n2cc(Cc3ccc4c5c(cccc35)C(=O)N4C3CCC(=O)NC3=O)cn2)CC1 (centres unmarked) [Compound 97, 3-(6-((1-(1-(2-chloro-2-methylpropanoyl)-4-methylpiperidin-4-yl)-1H-pyrazol-4-yl)methyl)-2-oxobenzo[cd]indol-1(2H)-yl)piperidine-2,6-dione] | < 1 |
| C[C@@H]1CN(Cc2ccc(Cc3ccc4c5c(cccc35)C(=O)N4C3CCC(=O)NC3=O)cc2)C[C@H](C)O1 (stereo partly drawn) [Compound 231, 3-(6-(4-(((2R,6S)-2,6-dimethylmorpholino)methyl)benzyl)-2-oxobenzo[cd]indol-1(2H)-yl)piperidine-2,6-dione] | < 1 |
| O=C1CCC(N2C(=O)c3cccc4c(Cc5cnn(C6CC(OCc7ccccc7)C6)c5)ccc2c34)C(=O)N1 (centres unmarked) [Compound 177, 3-[6-[[1-(3-benzyloxycyclobutyl)pyrazol-4-yl]methyl]-2-oxo-benzo[cd]indol-1-yl]piperidine-2,6-dione] | < 100 |
| O=C1CCC(N2C(=O)c3cccc4c(Cc5ccc(CN6CCC7(CCCO7)CC6)cc5)ccc2c34)C(=O)N1 (single isomer, unassigned) [Compound 217, 3-[6-[[4-(1-oxa-8-azaspiro[4.5]decan-8-ylmethyl)phenyl]methyl]-2-oxo-benzo[cd]indol-1-yl]piperidine-2,6-dione] | < 1 |
| CC(C)(C)OC(=O)N1CC2CC(C(=O)N3CCC(n4cc(Cc5ccc6c7c(cccc57)C(=O)N6C5CCC(=O)NC5=O)cn4)CC3)(C2)C1 (centres unmarked) [Compound 292, tert-butyl 1-(4-(4-((1-(2,6-dioxopiperidin-3-yl)-2-oxo-1,2-dihydrobenzo[cd]indol-6-yl)methyl)-1H-pyrazol-1-yl)piperidine-1-carbonyl)-3-azabicyclo[3.1.1]heptane-3-carboxylate] | < 1 |
| CC1(CN2CCC(n3cc(Cc4ccc5c6c(cccc46)C(=O)N5C4CCC(=O)NC4=O)cn3)CC2)CCC1 (single isomer, unassigned) [Compound 236, 3-[6-[[1-[1-[(1-methylcyclobutyl)methyl]-4-piperidyl]pyrazol-4-yl]methyl]-2-oxo-benzo[cd]indol-1-yl]piperidine-2,6-dione] | < 1 |
| Cc1cccc(C)c1C(=O)N1CCC(n2cc(Cc3ccc4c5c(cccc35)C(=O)N4C3CCC(=O)NC3=O)cn2)CC1 (centres unmarked) [Compound 45, 3-(6-((1-(1-(2,6-dimethylbenzoyl)piperidin-4-yl)-1H-pyrazol-4-yl)methyl)-2-oxobenzo[cd]indol-1(2H)-yl)piperidine-2,6-dione] | < 1 |
| CC1(C(=O)N2CCN(c3ccc(Cc4ccc5c6c(cccc46)C(=O)N5C4CCC(=O)NC4=O)cc3)CC2)CCC1 (centres unmarked) [Compound 167, 3-[6-[[4-[4-(1-methylcyclobutanecarbonyl)piperazin-1-yl]phenyl]methyl]-2-oxo-benzo[cd]indol-1-yl]piperidine-2,6-dione] | < 1 |
| O=C1CCC(N2C(=O)c3cccc4c(Cc5cnn(C6CCN(C7(C8CC8)CC7)CC6)c5)ccc2c34)C(=O)N1 (centres unmarked) [Compound 223, 3-[6-[[1-[1-(1-cyclopropylcyclopropyl)-4-piperidyl]pyrazol-4-yl]methyl]-2-oxo-benzo[cd]indol-1-yl]piperidine-2,6-dione] | < 1 |
| O=C1CCC(N2C(=O)c3cccc4c(Cc5cnn(C6CCCCC6)c5)ccc2c34)C(=O)N1 (centres unmarked) [Compound 162, 3-[6-[(1-cyclohexylpyrazol-4-yl)methyl]-2-oxo-benzo[cd]indol-1-yl]piperidine-2,6-dione] | < 1 |
